Results published in patent US20180244611A1, “Modulators of the Cystic Fibrosis Transmembrane Conductance Regulator Protein and Methods of Use” (AbbVie S.à.r.l., priority 2017, published 2018).

Key:
F508delCFTR [1] = biological target: T1, F508delCFTR (Homo sapiens, UniProt P13569, DEL508-508); test: Cell Surface Expression-Horse Radish Peroxidase (CSE-HRP) assay, test compound without co-corrector; type: cell-based; details: for EC50: CSE-HRP assay, test compound without co-corrector; for Emax: maximum at any tested concentration, normalized to on-plate positive control, without co-corrector;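 for Emax: percent of on-plate 2 µM positive control corrector response over DMSO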
T1 construct: expressed in transfected cells; host or cells: CFBE41o- human lung-derived epithelial cells (CFBE41o-F508delCFTR-HRP), doxycycline-inducible
T1 sequence (P13569 with tags, fused parts or gaps DEL508-508): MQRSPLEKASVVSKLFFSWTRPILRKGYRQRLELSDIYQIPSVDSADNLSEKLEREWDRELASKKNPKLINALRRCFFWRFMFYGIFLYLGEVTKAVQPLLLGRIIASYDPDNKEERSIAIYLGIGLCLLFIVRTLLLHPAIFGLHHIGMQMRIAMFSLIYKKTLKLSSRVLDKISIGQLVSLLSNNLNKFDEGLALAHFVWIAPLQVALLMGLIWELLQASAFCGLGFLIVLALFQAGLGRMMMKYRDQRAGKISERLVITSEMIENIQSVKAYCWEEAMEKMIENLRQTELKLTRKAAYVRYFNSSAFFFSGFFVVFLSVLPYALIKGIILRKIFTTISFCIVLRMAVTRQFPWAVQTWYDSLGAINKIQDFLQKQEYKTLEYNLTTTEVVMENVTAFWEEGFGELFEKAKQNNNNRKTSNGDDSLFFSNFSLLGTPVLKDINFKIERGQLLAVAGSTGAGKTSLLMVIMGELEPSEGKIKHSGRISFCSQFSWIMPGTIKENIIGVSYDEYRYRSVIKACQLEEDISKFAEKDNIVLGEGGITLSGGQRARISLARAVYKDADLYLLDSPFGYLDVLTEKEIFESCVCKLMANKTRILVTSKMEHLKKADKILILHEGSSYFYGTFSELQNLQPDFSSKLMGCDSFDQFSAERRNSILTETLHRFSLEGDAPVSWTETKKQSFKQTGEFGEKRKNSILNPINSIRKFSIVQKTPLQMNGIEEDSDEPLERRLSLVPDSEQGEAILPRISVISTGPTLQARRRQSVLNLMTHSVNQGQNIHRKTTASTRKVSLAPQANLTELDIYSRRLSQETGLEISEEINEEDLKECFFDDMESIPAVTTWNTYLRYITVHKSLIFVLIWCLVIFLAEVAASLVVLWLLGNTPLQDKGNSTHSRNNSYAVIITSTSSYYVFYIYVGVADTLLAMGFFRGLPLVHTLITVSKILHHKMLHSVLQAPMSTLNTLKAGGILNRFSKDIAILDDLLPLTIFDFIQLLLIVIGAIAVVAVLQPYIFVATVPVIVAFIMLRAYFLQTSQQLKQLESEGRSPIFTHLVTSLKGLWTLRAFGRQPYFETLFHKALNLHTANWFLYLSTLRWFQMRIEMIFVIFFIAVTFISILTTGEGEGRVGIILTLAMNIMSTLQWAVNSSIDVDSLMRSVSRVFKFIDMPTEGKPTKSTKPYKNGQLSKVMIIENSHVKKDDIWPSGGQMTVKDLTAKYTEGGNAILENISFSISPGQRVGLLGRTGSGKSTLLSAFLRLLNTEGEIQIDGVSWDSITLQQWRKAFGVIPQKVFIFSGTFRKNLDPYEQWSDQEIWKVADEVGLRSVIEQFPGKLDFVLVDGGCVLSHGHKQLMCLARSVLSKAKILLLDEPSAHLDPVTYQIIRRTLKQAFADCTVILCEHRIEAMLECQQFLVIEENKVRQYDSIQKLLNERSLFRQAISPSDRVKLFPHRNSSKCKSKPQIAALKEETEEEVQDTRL
Summary of the method: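 Compound without co-corrector was tested at eight 3-fold concentrations, top 20 μM, for 18-24 h at 33° C on doxycycline-induced (0.5 μg/mL, 72 h) CFBE41o- F508delCFTR-HRP cells. After DPBS washes, luminol luminescence gave % activity relative to on-plate positive control minus DMSO; EC50 came from triplicate-plate sigmoidal fitting.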

F508delCFTR [2] = biological target: T1, F508delCFTR; test: Cell Surface Expression-Horse Radish Peroxidase (CSE-HRP) assay, test compound with co-corrector; type: cell-based; details: for EC50: CSE-HRP assay, test compound with 2 μM co-corrector; for Maximum % activity (with co-corrector): maximum at any tested concentration, normalized to on-plate positive control, with 2 μM co-corrector;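 for Maximum % activity (with co-corrector): percent of 2 µM positive control corrector over DMSO; co-corrector is that same compound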
Summary of the method: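 Surface-expression read-out: luminol luminescence from an HRP tag in the fourth exofacial loop of F508delCFTR, in doxycycline-induced (0.5 μg/mL, 72 h) CFBE41o- cells. Compound plus 2 μM co-corrector added for 18-24 h at 33° C., 8-point 3-fold series up to 20 μM. EC50 from a sigmoidal fit with variable Hill slope, normalised to positive control, triplicate plates.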

Row | EC50 (F508delCFTR [1]) | Emax (F508delCFTR [1]) | EC50 (F508delCFTR [2]) | Maximum % activity (with co-corrector) (F508delCFTR [2]) | SMILES
1 | ≥ 10 µM | < 50% | ≥ 10 µM | + (<150) | Cc1cncc(-c2cccc3c2CCC3C(=O)NS(=O)(=O)c2ccccc2C)c1 (centres unmarked) [III-92]
2 | ≥ 10 µM | < 50% | 3 to 10 µM | ++ (≥150 and <350) | Cc1ccccc1S(=O)(=O)NC(=O)C1CCc2c(-c3ccnc(F)c3)cccc21 (centres unmarked) [III-93]
3 | ≥ 10 µM | < 50% | 3 to 10 µM | ++ (≥150 and <350) | Cc1ccccc1S(=O)(=O)NC(=O)C1CCc2c(-c3ccncc3F)cccc21 (centres unmarked) [III-94]
4 | ≥ 10 µM | < 50% | ≥ 10 µM | + (<150) | Cc1cnccc1-c1cccc2c1CCC2C(=O)NS(=O)(=O)c1ccccc1C (centres unmarked) [III-95]
5 | ≥ 10 µM | < 50% | ≥ 10 µM | + (<150) | Cc1cc(-c2cccc3c2CCC3C(=O)NS(=O)(=O)c2ccccc2C)ccn1 (centres unmarked) [III-96]
6 | ≥ 10 µM | < 50% | ≥ 10 µM | + (<150) | Cc1ccccc1S(=O)(=O)NC(=O)C1CCc2c(-c3cn[nH]c3)cccc21 (centres unmarked) [III-97]
7 | ≥ 10 µM | < 50% | ≥ 10 µM | + (<150) | Cc1ccccc1S(=O)(=O)NC(=O)C1CCc2c(-c3ccn[nH]3)cccc21 (centres unmarked) [III-98]
8 | 3 to 10 µM | 50 to 150% | 3 to 10 µM | +++ (≥350) | Cc1ccccc1S(=O)(=O)NC(=O)C1CCc2c(-c3ccsc3)cccc21 (centres unmarked) [III-99]
9 | ≥ 10 µM | < 50% | 3 to 10 µM | + (<150) | Cc1ccccc1S(=O)(=O)NC(=O)C1CCc2c(-c3ccc(N4CCOCC4)nc3)cccc21 (centres unmarked) [III-100]
10 | ≥ 10 µM | < 50% | ≥ 10 µM | + (<150) | Cc1ccccc1S(=O)(=O)NC(=O)C1CCc2c(-c3c[nH]nc3C)cccc21 (centres unmarked) [III-101]
11 | ≥ 10 µM | < 50% | ≥ 10 µM | + (<150) | Cc1ccccc1S(=O)(=O)NC(=O)C1CCc2c(-c3cnn(C)c3)cccc21 (centres unmarked) [III-102]
12 | ≥ 10 µM | < 50% | 3 to 10 µM | ++ (≥150 and <350) | Cc1ccc(-c2cccc3c2CCC3C(=O)NS(=O)(=O)c2ccccc2C)o1 (centres unmarked) [III-103]
13 | ≥ 10 µM | < 50% | ≥ 10 µM | + (<150) | Cc1ccccc1S(=O)(=O)NC(=O)C1CCc2c(-c3c(C)nn(C)c3C)cccc21 (centres unmarked) [III-105]
14 | ≥ 10 µM | < 50% | ≥ 10 µM | + (<150) | Cc1ccccc1S(=O)(=O)NC(=O)C1CCc2c(-c3ccnn3C)cccc21 (centres unmarked) [III-106]
15 | 3 to 10 µM | 50 to 150% | 3 to 10 µM | +++ (≥350) | COc1cccc2c1CCC[C@H]2C(=O)NS(=O)(=O)c1cccnc1N [III-107]
16 | 3 to 10 µM | 50 to 150% | 3 to 10 µM | ++ (≥150 and <350) | Cc1ccc2c(c1)CCC2(C)C(=O)NS(=O)(=O)c1cccc(N)n1 (centres unmarked) [III-108]
17 | ≥ 10 µM | < 50% | ≥ 10 µM | + (<150) | COc1cccc2c1CCC[C@H]2C(=O)NS(=O)(=O)c1cccc(N)n1 [III-109]
18 | ≥ 10 µM | < 50% | ≥ 10 µM | + (<150) | Nc1cccc(S(=O)(=O)NC(=O)C2CCCc3cccc(Cl)c32)n1 (centres unmarked) [III-110]
19 | ≥ 10 µM | < 50% | < 3 µM | ++ (≥150 and <350) | CCC1(C(=O)NS(=O)(=O)c2ccc(Cl)cc2Cl)CCc2c(Cl)cccc21 (centres unmarked) [III-113]
20 | 3 to 10 µM | < 50% | < 3 µM | ++ (≥150 and <350) | CCC1(C(=O)NS(=O)(=O)c2ccc(C)cc2C)CCc2c(Cl)cccc21 (centres unmarked) [III-114]
21 | < 3 µM | < 50% | < 3 µM | ++ (≥150 and <350) | CCC1(C(=O)NS(=O)(=O)c2c(F)cccc2F)CCc2c(Cl)cccc21 (centres unmarked) [III-115]
22 | ≥ 10 µM | < 50% | ≥ 10 µM | + (<150) | CCC1(C(=O)NS(=O)(=O)c2cc(Cl)ccc2Cl)CCc2c(Cl)cccc21 (centres unmarked) [III-116]

Row | EC50 (F508delCFTR [1]) | Emax (F508delCFTR [1]) | EC50 (F508delCFTR [2]) | Maximum % activity (with co-corrector) (F508delCFTR [2]) | SMILES
23 | 3 to 10 µM | < 50% | < 3 µM | ++ (≥150 and <350) | CCC1(C(=O)NS(=O)(=O)c2cccc(Cl)c2)CCc2c(Cl)cccc21 (centres unmarked) [III-117]
24 | ≥ 10 µM | < 50% | ≥ 10 µM | + (<150) | CCC1(C(=O)NS(=O)(=O)c2cc(C)ccc2Cl)CCc2c(Cl)cccc21 (centres unmarked) [III-118]
25 | ≥ 10 µM | < 50% | 3 to 10 µM | + (<150) | CCC1(C(=O)NS(=O)(=O)c2ccc(OC(F)(F)F)cc2)CCc2c(Cl)cccc21 (centres unmarked) [III-119]
26 | ≥ 10 µM | < 50% | ≥ 10 µM | + (<150) | CCC1(C(=O)NS(=O)(=O)c2ccccc2C#N)CCc2c(Cl)cccc21 (centres unmarked) [III-120]
27 | ≥ 10 µM | < 50% | ≥ 10 µM | + (<150) | CCC1(C(=O)NS(=O)(=O)c2c(OC)cccc2OC)CCc2c(Cl)cccc21 (centres unmarked) [III-121]
28 | ≥ 10 µM | < 50% | ≥ 10 µM | + (<150) | CCC1(C(=O)NS(=O)(=O)c2ccccc2C(F)(F)F)CCc2c(Cl)cccc21 (centres unmarked) [III-122]
29 | ≥ 10 µM | < 50% | 3 to 10 µM | ++ (≥150 and <350) | CCC1(C(=O)NS(=O)(=O)c2ccc3c(c2)OCCO3)CCc2c(Cl)cccc21 (centres unmarked) [III-123]
30 | ≥ 10 µM | < 50% | ≥ 10 µM | + (<150) | CCC1(C(=O)NS(=O)(=O)c2c(C)cccc2Cl)CCc2c(Cl)cccc21 (centres unmarked) [III-124]
31 | 3 to 10 µM | < 50% | 3 to 10 µM | ++ (≥150 and <350) | CCC1(C(=O)NS(=O)(=O)c2ccc(Cl)cc2)CCc2c(Cl)cccc21 (centres unmarked) [III-125]
32 | ≥ 10 µM | < 50% | ≥ 10 µM | + (<150) | CCC1(C(=O)NS(=O)(=O)c2c(C)cccc2C(F)(F)F)CCc2c(Cl)cccc21 (centres unmarked) [III-126]
33 | ≥ 10 µM | < 50% | ≥ 10 µM | + (<150) | CCC1(C(=O)NS(=O)(=O)c2cccc(F)c2C#N)CCc2c(Cl)cccc21 (centres unmarked) [III-127]
34 | 3 to 10 µM | < 50% | 3 to 10 µM | ++ (≥150 and <350) | CCC1(C(=O)NS(=O)(=O)C2(C)CC2)CCc2c(Cl)cccc21 (centres unmarked) [III-128]
35 | ≥ 10 µM | < 50% | 3 to 10 µM | ++ (≥150 and <350) | CCC1(C(=O)NS(=O)(=O)c2ccc(-c3ccccc3)cc2)CCc2c(Cl)cccc21 (centres unmarked) [III-129]
36 | ≥ 10 µM | < 50% | ≥ 10 µM | + (<150) | CCC1(C(=O)NS(=O)(=O)c2ccc(CN(C)C)cc2)CCc2c(Cl)cccc21 (centres unmarked) [III-130]
37 | ≥ 10 µM | < 50% | ≥ 10 µM | + (<150) | CCC1(C(=O)NS(=O)(=O)c2c(C)nn(C)c2Cl)CCc2c(Cl)cccc21 (centres unmarked) [III-131]
38 | ≥ 10 µM | < 50% | 3 to 10 µM | ++ (≥150 and <350) | CCC1(C(=O)NS(=O)(=O)c2cccnc2Cl)CCc2c(Cl)cccc21 (centres unmarked) [III-132]
39 | ≥ 10 µM | < 50% | 3 to 10 µM | ++ (≥150 and <350) | CCC1(C(=O)NS(=O)(=O)c2ccc3ncccc3c2)CCc2c(Cl)cccc21 (centres unmarked) [III-133]
40 | ≥ 10 µM | < 50% | ≥ 10 µM | + (<150) | CCC1(C(=O)NS(=O)(=O)c2c(Cl)nc3sccn23)CCc2c(Cl)cccc21 (centres unmarked) [III-134]
41 | ≥ 10 µM | < 50% | ≥ 10 µM | + (<150) | CCC1(C(=O)NS(=O)(=O)c2ncccc2C(=O)N(C)C)CCc2c(Cl)cccc21 (centres unmarked) [III-135]
42 | ≥ 10 µM | < 50% | ≥ 10 µM | + (<150) | CCC1(C(=O)NS(=O)(=O)C2CCCCC2)CCc2c(Cl)cccc21 (centres unmarked) [III-136]
43 | ≥ 10 µM | < 50% | ≥ 10 µM | + (<150) | CCC1(C(=O)NS(=O)(=O)c2cnccc2N2CCN(C(C)C)CC2)CCc2c(Cl)cccc21 (centres unmarked) [III-137]
44 | 3 to 10 µM | < 50% | 3 to 10 µM | ++ (≥150 and <350) | CCC1(C(=O)NS(=O)(=O)c2ccccc2OCCN2CCCCC2)CCc2c(Cl)cccc21 (centres unmarked) [III-138]
